Results taken from patent publication US10336732B2, “1-heterocyclyl isochromanyl compounds and analogs for treating CNS disorders” (Sunovion Pharmaceuticals Inc., priority 2015, dated 2019).

Each compound was assayed on mice (assay: Neuropharmacological assay (SmartCube), behavioral signature of compound-treated mice). Conditions: i.p. 15 min before behavioral test, most efficacious dose(s) of 3 doses.
Type: in vivo
Description: Neurosci. […] As reported in Roberds, because psychiatric diseases generally result from disorders of cell-cell communication or circuitry, intact systems are useful in detecting improvement in disease-relevant endpoints. These endpoints are typically behavioral in nature, often requiring human observation and interpretation. To facilitate testing of multiple compounds for behavioral effects relevant to psychiatric disease, PsychoGenics, Inc. (Tarrytown, N.Y., “PGI”) developed SmartCube™, an automated system in which behaviors of compound-treated mice are captured by digital video and analyzed with computer algorithms. […] PGI Analytical Systems uses data from SmartCube™ to compare the behavioral signature of a test compound to a database of behavioral signatures obtained using a large set of diverse reference compounds. (The composition of the database as well as validation of the method is further described in Roberds). In this way, the neuropharmacological effects of a test compound can be predicted by similarity to major classes of compounds, such as antipsychotics, anxiolytics and antidepressants.
The SmartCube™ system produces an activity signature indicating the probability that the activity of the test compound at the administered dose matches a given class of neuropharmacological agents. (See, e.g., Roberds, FIGS. 2 and 3). The test compound is simultaneously compared against multiple classes of agents; thus, a separate probability is generated for each behavioral effect measured (e.g., anxiolytic activity, analgesic activity, etc.). In Table 4, these probabilities are reported for each behavioral effect measured as follows:
Provided compounds were dissolved in a mixture of Pharmasolve™ (N-methyl-2-pyrrolidone), polyethylene glycol and propylene glycol, and were injected i.p. 15 min. before the behavioral test. For each compound, injections were administered at 3 different doses. For each behavioral effect measured, results for the most efficacious dose(s) are presented.

| Structure (SMILES) | AD: ADHD (probability that behavioral signature matches class) | AG: analgesic (probability that behavioral signature matches class) | AX: anxiolytic (probability that behavioral signature matches class) | CE: cognitive enhancer (probability that behavioral signature matches class) | DP: anti-depressant (probability that behavioral signature matches class) | HA: hallucinogen (probability that behavioral signature matches class) | MS: mood stabilizer (probability that behavioral signature matches class) | PS: anti-psychotic (probability that behavioral signature matches class) | SD: sedative hypnotic (probability that behavioral signature matches class) | UN: uncharacterized CNS activity (probability that behavioral signature matches class) |
| --- | --- | --- | --- | --- | --- | --- | --- | --- | --- | --- |
| CCN1CCC[C@H]1[C@@H]1OCCc2cc(F)ccc21 [Compound I-70, (S)-1-ethyl-2-((R)-6-fluoroisochroman-1-yl)pyrrolidine] | + (LOQ ≤ + <5%) | ++ (5% ≤ ++ <25%) | +++ (25% ≤ +++ <50%) | + (LOQ ≤ + <5%) | ++ (5% ≤ ++ <25%) | + (LOQ ≤ + <5%) | + (LOQ ≤ + <5%) | + (LOQ ≤ + <5%) | + (LOQ ≤ + <5%) | + (LOQ ≤ + <5%) |
| c1cc2c(c3c1CO[C@H]3[C@@H]1CCCN1)OCO2 [Compound I-141, (S)-2-((R)-6,8-dihydro-[1,3]dioxolo[4,5-e]isobenzofuran-8-yl)-pyrrolidine] | ++ (5% ≤ ++ <25%) | ++ (5% ≤ ++ <25%) | ++ (5% ≤ ++ <25%) | +++ (25% ≤ +++ <50%) | ++ (5% ≤ ++ <25%) | ++ (5% ≤ ++ <25%) | + (LOQ ≤ + <5%) | ++ (5% ≤ ++ <25%) | + (LOQ ≤ + <5%) | ++++ (50% ≤ ++++) |
| COc1cccc2c1[C@@H]([C@H]1CCCN1)OCC2 [Compound I-50, (R)-2-((S)-8-methoxyisochroman-1-yl)pyrrolidine] | + (LOQ ≤ + <5%) | ++ (5% ≤ ++ <25%) | +++ (25% ≤ +++ <50%) | ++ (5% ≤ ++ <25%) | ++ (5% ≤ ++ <25%) | + (LOQ ≤ + <5%) | + (LOQ ≤ + <5%) | ++ (5% ≤ ++ <25%) | + (LOQ ≤ + <5%) | +++ (25% ≤ +++ <50%) |
| Fc1ccc2c(c1)CO[C@H]2[C@H]1CCN1 [Compound I-128, (R)-2-((R)-5-fluoro-1,3-dihydroisobenzofuran-1-yl)azetidine] | + (LOQ ≤ + <5%) | ++ (5% ≤ ++ <25%) | ++ (5% ≤ ++ <25%) | + (LOQ ≤ + <5%) | ++ (5% ≤ ++ <25%) | + (LOQ ≤ + <5%) | + (LOQ ≤ + <5%) | ++++ (50% ≤ ++++) | + (LOQ ≤ + <5%) | + (LOQ ≤ + <5%) |
| CC1(C)CN[C@@H]([C@@H]2OCCc3ccccc32)C1 [Compound I-61, (R)-2-((R)-isochroman-1-yl)-4,4-dimethylpyrrolidine] | + (LOQ ≤ + <5%) | +++ (25% ≤ +++ <50%) | ++ (5% ≤ ++ <25%) | + (LOQ ≤ + <5%) | ++ (5% ≤ ++ <25%) | + (LOQ ≤ + <5%) | ++ (5% ≤ ++ <25%) | ++ (5% ≤ ++ <25%) | + (LOQ ≤ + <5%) | + (LOQ ≤ + <5%) |
| c1ccc(-c2ccc3c(c2)CCO[C@H]3[C@@H]2CCCN2)nc1 [Compound I-58, 2-((R)-1-((S)-pyrrolidin-2-yl)isochroman-6-yl)pyridine] | + (LOQ ≤ + <5%) | ++ (5% ≤ ++ <25%) | ++ (5% ≤ ++ <25%) | + (LOQ ≤ + <5%) | +++ (25% ≤ +++ <50%) | + (LOQ ≤ + <5%) | ++ (5% ≤ ++ <25%) | ++ (5% ≤ ++ <25%) | + (LOQ ≤ + <5%) | + (LOQ ≤ + <5%) |
| c1ccc2c(c1)CCO[C@@H]2[C@@H]1COCCN1 [Compound I-75, (S)-3-((S)-isochroman-1-yl)morpholine] | + (LOQ ≤ + <5%) | + (LOQ ≤ + <5%) | ++ (5% ≤ ++ <25%) | ++ (5% ≤ ++ <25%) | +++ (25% ≤ +++ <50%) | + (LOQ ≤ + <5%) | ++ (5% ≤ ++ <25%) | ++ (5% ≤ ++ <25%) | ++ (5% ≤ ++ <25%) | + (LOQ ≤ + <5%) |
| Fc1ccc2c(c1)CCO[C@@H]2[C@@H]1COCCN1 [Compound I-77, (S)-3-((S)-6-fluoroisochroman-1-yl)morpholine] | + (LOQ ≤ + <5%) | + (LOQ ≤ + <5%) | ++ (5% ≤ ++ <25%) | + (LOQ ≤ + <5%) | + (LOQ ≤ + <5%) | + (LOQ ≤ + <5%) | + (LOQ ≤ + <5%) | + (LOQ ≤ + <5%) | + (LOQ ≤ + <5%) | + (LOQ ≤ + <5%) |
| FC1(F)CO[C@H]([C@@H]2CCCN2)c2ccccc21 [Compound I-139, (S)-2-((S)-4,4-difluoroisochroman-1-yl)pyrrolidine] | + (LOQ ≤ + <5%) | + (LOQ ≤ + <5%) | ++ (5% ≤ ++ <25%) | ++ (5% ≤ ++ <25%) | ++ (5% ≤ ++ <25%) | + (LOQ ≤ + <5%) | + (LOQ ≤ + <5%) | +++ (25% ≤ +++ <50%) | + (LOQ ≤ + <5%) | + (LOQ ≤ + <5%) |
| Clc1ccc2c(c1)CCO[C@@H]2[C@@H]1CCCN1 [Compound I-33, (S)-2-((S)-6-chloroisochroman-1-yl)pyrrolidine] | + (LOQ ≤ + <5%) | + (LOQ ≤ + <5%) | ++ (5% ≤ ++ <25%) | ++ (5% ≤ ++ <25%) | ++ (5% ≤ ++ <25%) | + (LOQ ≤ + <5%) | + (LOQ ≤ + <5%) | +++ (25% ≤ +++ <50%) | ++ (5% ≤ ++ <25%) | + (LOQ ≤ + <5%) |

Same assay, conditions: i.p. 15 min before behavioral test, most efficacious dose(s) of 3 doses

| Structure (SMILES) | XG: anxiogenic (probability that behavioral signature matches class) |
| --- | --- |
| CCN1CCC[C@H]1[C@@H]1OCCc2cc(F)ccc21 [Compound I-70, (S)-1-ethyl-2-((R)-6-fluoroisochroman-1-yl)pyrrolidine] | + (LOQ ≤ + <5%) |
| c1cc2c(c3c1CO[C@H]3[C@@H]1CCCN1)OCO2 [Compound I-141, (S)-2-((R)-6,8-dihydro-[1,3]dioxolo[4,5-e]isobenzofuran-8-yl)-pyrrolidine] | + (LOQ ≤ + <5%) |
| COc1cccc2c1[C@@H]([C@H]1CCCN1)OCC2 [Compound I-50, (R)-2-((S)-8-methoxyisochroman-1-yl)pyrrolidine] | + (LOQ ≤ + <5%) |
| Fc1ccc2c(c1)CO[C@H]2[C@H]1CCN1 [Compound I-128, (R)-2-((R)-5-fluoro-1,3-dihydroisobenzofuran-1-yl)azetidine] | + (LOQ ≤ + <5%) |
| CC1(C)CN[C@@H]([C@@H]2OCCc3ccccc32)C1 [Compound I-61, (R)-2-((R)-isochroman-1-yl)-4,4-dimethylpyrrolidine] | ++ (5% ≤ ++ <25%) |
| c1ccc(-c2ccc3c(c2)CCO[C@H]3[C@@H]2CCCN2)nc1 [Compound I-58, 2-((R)-1-((S)-pyrrolidin-2-yl)isochroman-6-yl)pyridine] | + (LOQ ≤ + <5%) |
| c1ccc2c(c1)CCO[C@@H]2[C@@H]1COCCN1 [Compound I-75, (S)-3-((S)-isochroman-1-yl)morpholine] | + (LOQ ≤ + <5%) |
| Fc1ccc2c(c1)CCO[C@@H]2[C@@H]1COCCN1 [Compound I-77, (S)-3-((S)-6-fluoroisochroman-1-yl)morpholine] | + (LOQ ≤ + <5%) |
| FC1(F)CO[C@H]([C@@H]2CCCN2)c2ccccc21 [Compound I-139, (S)-2-((S)-4,4-difluoroisochroman-1-yl)pyrrolidine] | + (LOQ ≤ + <5%) |
| Clc1ccc2c(c1)CCO[C@@H]2[C@@H]1CCCN1 [Compound I-33, (S)-2-((S)-6-chloroisochroman-1-yl)pyrrolidine] | + (LOQ ≤ + <5%) |
